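Compound exposure: 48 hours, 5 concentrations, 96-well plates. Here, GI50 denotes the concentration required for 50% inhibition of growth. At the TGI there is no net growth.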
Legend:
Assay in all cases: DTP human tumour cell line panel, 48 h
786-0 renal = system: 786-0 renal
HCC-2998 colon = system: HCC-2998 colon
HOP-92 NSCLC = system: HOP-92 NSCLC
MALME-3M melanoma = system: MALME-3M melanoma
OVCAR-4 ovarian = system: OVCAR-4 ovarian
RPMI-8226 leukemia = system: RPMI-8226 leukemia
SF-268 CNS = system: SF-268 CNS
SK-OV-3 ovarian = system: SK-OV-3 ovarian
TK-10 renal = system: TK-10 renal
UACC-62 melanoma = system: UACC-62 melanoma

Structure (SMILES)	GI50 (786-0 renal) [nM]	TGI (786-0 renal) [µM]	GI50 (HCC-2998 colon) [nM]	TGI (HCC-2998 colon) [µM]	GI50 (HOP-92 NSCLC) [nM]	TGI (HOP-92 NSCLC) [µM]	GI50 (MALME-3M melanoma) [nM]	TGI (MALME-3M melanoma) [µM]	GI50 (OVCAR-4 ovarian) [nM]	TGI (OVCAR-4 ovarian) [µM]	GI50 (RPMI-8226 leukemia) [nM]	TGI (RPMI-8226 leukemia) [µM]	GI50 (SF-268 CNS) [nM]	TGI (SF-268 CNS) [µM]	GI50 (SK-OV-3 ovarian) [nM]	TGI (SK-OV-3 ovarian) [µM]	GI50 (TK-10 renal) [nM]	TGI (TK-10 renal) [µM]	GI50 (UACC-62 melanoma) [nM]	TGI (UACC-62 melanoma) [µM]
CCN1C(=O)N(CC)C2C1NC(=S)N2/N=C/C=C/c1ccccc1OC (centres undefined)	< 21.2	> 100	34.3	16.2	26.9	27.1	59.9	> 100	125	> 100	43.1	30.9	53.5	> 100	36.8	> 100	30900	> 100	45.8	> 100
O=C1C(=C([O-])c2ccccc2)C(=O)c2ccccc21.O=C1C(=C([O-])c2ccccc2)C(=O)c2ccccc21.[Co+2]	> 100000	> 100	> 100000	> 100	62400	> 100	40100	> 100	> 100000	> 100	> 100000	> 100	> 100000	> 100	> 100000	> 100	> 100000	> 100	57100	> 100
O=C1/C(=C\c2ccccc2)CN(C(=O)c2ccccc2)C/C1=C\c1ccccc1	2000	4.44	1890	3.48	3280	21	2960	7.17	2980	11.4	238	0.747	3400	14.8	3100	9.44	2830	9.06	1690	3.42
CN(CSc1ccc(Cl)cc1)c1ccc(CSc2ccc(Cl)cc2)cc1	1800	11	4810	18.3	3560	16.9	12000	33.1	3150	20	2110	> 100	1460	10.4	7900	23.4	11500	31.7	3820	15.8
C=C(CN1CCN(c2ccccc2C(F)(F)F)CC1)c1ccc(C(=O)Nc2ccccc2N)cc1	2360	15.1	3830	13.9	1850	30.9	4170	> 64.1	6530	> 84.3	164	1.01	4550	> 47	11000	> 100	4630	> 67.7	9160	> 93.7
CCc1cccc(CC)c1NC(=O)CC1SC(N)=NC1=O (centres undefined)		> 100		> 100		> 100		> 100		> 100		> 100		> 100		> 100		> 100		> 100
O=c1nc(N2CCCC2)nc(N2CCCC2)s1		> 100		> 100		> 100		> 100		> 100		> 100		> 100		> 100		> 100		> 100
CC(=O)CC(=O)NC=O		> 100		> 100		> 100		> 100		> 100		> 100		> 100		> 100		> 100		> 100
O=C1c2cccnc2C(=O)c2c1c(C(=O)OCCc1ccccn1)c1ccccn21	252	1.26	120	2.08	121	5.58	61.3	0.924	1130	8.39	219		18.8	5.31	53.9	1.17	340	2.19	20.2	0.219
COc1ccc(C2CC(c3ccc4ccccc4c3)=NN2c2nc(O)c(C3=c4cc(OC)ccc4=NC3=O)s2)cc1 (centres undefined)	28	0.0869	76.2	0.265	131	0.358	24.3	0.0655	33	0.128	270	3.93	61.5	0.241	130	0.431	90.5	0.371	121	0.368
Brc1ccc(Nc2nc3ccccc3nc2Nc2ccc(Br)cc2)cc1	1730	5.9	1660	7.7	2190	5.5	1980	4.95	1250	8.98	756	5.87	1690	13.3	2140	7.69	1810	6.6	1940	5.37

— PubChem BioAssay (NCI)
